These are literature values, as cited in US20200093858A1, “VAGINAL BIOADHESIVE BORIC ACID FORMULATION AND ITS PREPARATION METHOD” (Halo Science LLC, priority 2015, published 2020).

Like-named read-outs stand apart in the source and are kept apart here.

One data set deals with common fungi or bacteria. Conditions: in urine.
The next data set deals with C. albicans. Conditions: 2×10^6 per mL of C. albicans, in vitro.
The test system of the next data set is T. glabrata. As to conditions: refractory T. glabrata vaginitis.
The conditions of data set [1]: 600 mg per day, therapeutic course of two weeks.
Data set [2] has as its system recurrent bacterial vaginosis. Conditions: for cure rate / cumulative cure rate: boric acid in addition to nitroimidazole.

Regarding `OB(O)O` [boric acid], the “boric acid concentration that could suppress almost all common fungi or bacteria” value with common fungi or bacteria is 10 to 20 mg/mL. Further, in the data set on C. albicans, the “boric acid concentration that inhibited proliferation of C. albicans” value is 4%. Further, the Clinical efficacy with T. glabrata is given as at most 81%. In addition, the mycological eradication rate in the data set on T. glabrata is at most 77%. Moreover, the cure rate in the data set with vulvovaginal candidiasis (boric acid treatment of vulvovaginal candidiasis) is given as above 90%; in data set [2] (week 7), 88%; in data set [2] (week 12), 92%. Besides, the “efficacy compared with conazoles” value in the data set on vulvovaginal candidiasis (treatment for 14 days) is “equivalent to conazoles”. Moreover, the adverse reactions result is given as “did not cause adverse reactions” in data set [1] and “No adverse reactions were observed” in data set [2] (in vivo). Besides, the results for the cumulative cure rate in data set [2] (week 16) and in data set [2] (week 28) were 78% and 65%, respectively.
